Read-outs that look alike come from different tables or passages of the source.
What was measured:
SceCet1 = biological target: T1, SceCet1 (Saccharomyces cerevisiae, UniProt O13297); test: TLC assay for 32Pi release from [γ-32P]ATP, SceCet1; format: biochemical; details: for IC50/IC50 TbCet1, SceCet1: ratio in parentheses
T1 construct: C-terminal catalytic domain (aa 241 to 539) of S. cerevisiae RTPase (SceCet1); made in house; host or cells: Escherichia coli

TbCet1 [1] = biological target: T2, TbCet1 (Trypanosoma brucei brucei, UniProt Q582T2); test: TLC assay for 32Pi release from [γ-32P]ATP, TbCet1; details: for IC50: 2.2 nM TbCet1, 0.2 mM ATP, 2 mM Mn2+, 10 min 37°C
T2 sequence (Q582T2 1-253): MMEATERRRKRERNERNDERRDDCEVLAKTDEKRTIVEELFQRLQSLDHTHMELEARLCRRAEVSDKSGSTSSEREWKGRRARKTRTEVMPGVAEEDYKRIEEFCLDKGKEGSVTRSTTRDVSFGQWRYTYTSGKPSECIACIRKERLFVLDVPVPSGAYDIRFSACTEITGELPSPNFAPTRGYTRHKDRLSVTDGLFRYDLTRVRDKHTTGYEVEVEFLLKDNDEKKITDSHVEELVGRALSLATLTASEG

CthTTM [2] = biological target: T3, CthTTM (Acetivibrio thermocellus, UniProt A3DIJ8); test: TLC assay for 32Pi release from [γ-32P]ATP, CthTTM; format: biochemical, Clostridium thermocellum; details: for IC50/IC50 TbCet1, CthTTM: ratio in parentheses
T3 sequence (A3DIJ8 1-156): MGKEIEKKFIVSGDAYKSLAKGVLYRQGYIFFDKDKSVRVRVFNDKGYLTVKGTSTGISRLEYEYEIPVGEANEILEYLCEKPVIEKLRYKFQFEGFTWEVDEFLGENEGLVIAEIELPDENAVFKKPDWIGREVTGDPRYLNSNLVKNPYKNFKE

Lef4 = biological target: T4, Lef4 (Autographa californica nuclear polyhedrosis virus, UniProt P41477); test: TLC assay for 32Pi release from [γ-32P]ATP, Lef4; format: biochemical, Autographa californica nucleopolyhedrovirus (AcNPV); details: for IC50/IC50 TbCet1, Lef4: ratio in parentheses;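 for all read-outs here: Lef4 RNA triphosphatase cleaving radiolabelled ATP over 10 min at 37°C, hydrolysis set relative to inhibitor-free 5% DMSO controls, comparisons made against TbCet1 tested the same way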
T4 construct: the N-terminal RTPase domain (aa 1 to 236) of AcNPV Lef4 capping enzyme; HisSmt3 (N, cleaved yes); made in house; host or cells: Escherichia coli

TbCet1 [3] = biological target: T2, TbCet1; test: colorimetric malachite green HTS assay of Pi release from ATP by TbCet1
MimiCE = biological target: T5, MimiCE (Acanthamoeba polyphaga mimivirus, UniProt Q5UQX1); test: biochemical; format: biochemical; details: for IC50/IC50 TbCet1, MimiCE: ratio in parentheses;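 for all read-outs here: mimivirus capping enzyme triphosphatase ATPase reaction, radiolabeled ATP hydrolysis to Pi quantified by TLC after 10 min, normalized to no-inhibitor control with 5% DMSO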
T5 construct: the N-terminal RTPase domain (amino acids [aa] 1 to 237) of mimivirus capping enzyme (MimiCE); HisSmt3 (N, cleaved yes); made in house; host or cells: Escherichia coli

procyclic T. brucei = test: cell proliferation of cultured procyclic T. brucei; format: cell-based, Trypanosoma brucei; details: 10 µM; preliminary studies, data not shown
[4] = test system: Trypanosoma cruzi amastigotes; set-up: method as in PMID 25880257; details: cited from earlier work
Leishmania amazonensis = test system: Leishmania amazonensis; set-up: method as in PMID 25880257; details: cited from earlier work
CthTTM [5] = test: TLC assay for 32Pi release from [γ-32P]ATP, CthTTM; format: biochemical, Clostridium thermocellum
TbCet1 [6] = biological target: T2, TbCet1; set-up: Recombinant full-length T. brucei RTPase TbCet1; HisSmt3 (N, cleaved yes); made in house; host or cells: Escherichia coli; method as in PMID 14525979; details: ATP substrate Km 25 µM; read-out: Ki, competitive inhibitor of TbCet1; cited from earlier work
[7] = 500 nM CthTTM, 37°C, read-out: IC50 CthTTM
[8] = 50 nM Lef4, 37°C, read-out: IC50 Lef4
[9] = 7 nM MimiCE, 37°C, read-out: IC50 MimiCE
[10] = read-out: IC50 TbCet1 by 32P assay
[11] = read-out: IC50 by HTS assay, colorimetric phosphate release from ATP, Mn2+

T1 sequence (O13297 241-539): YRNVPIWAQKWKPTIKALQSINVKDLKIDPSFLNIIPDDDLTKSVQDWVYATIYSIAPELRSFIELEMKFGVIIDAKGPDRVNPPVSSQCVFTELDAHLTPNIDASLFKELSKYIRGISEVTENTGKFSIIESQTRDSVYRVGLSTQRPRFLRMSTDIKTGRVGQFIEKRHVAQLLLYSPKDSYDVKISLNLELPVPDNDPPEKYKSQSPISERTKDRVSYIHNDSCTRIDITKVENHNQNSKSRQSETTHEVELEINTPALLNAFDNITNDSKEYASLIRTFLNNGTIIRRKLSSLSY
T4 sequence (P41477 1-236): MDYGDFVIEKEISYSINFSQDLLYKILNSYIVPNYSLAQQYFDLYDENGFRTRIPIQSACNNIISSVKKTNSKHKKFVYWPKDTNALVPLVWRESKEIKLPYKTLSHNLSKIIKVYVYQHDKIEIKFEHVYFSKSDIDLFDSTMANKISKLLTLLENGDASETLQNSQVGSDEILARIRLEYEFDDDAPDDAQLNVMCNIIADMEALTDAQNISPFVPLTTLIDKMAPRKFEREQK
T5 sequence (Q5UQX1 1-237): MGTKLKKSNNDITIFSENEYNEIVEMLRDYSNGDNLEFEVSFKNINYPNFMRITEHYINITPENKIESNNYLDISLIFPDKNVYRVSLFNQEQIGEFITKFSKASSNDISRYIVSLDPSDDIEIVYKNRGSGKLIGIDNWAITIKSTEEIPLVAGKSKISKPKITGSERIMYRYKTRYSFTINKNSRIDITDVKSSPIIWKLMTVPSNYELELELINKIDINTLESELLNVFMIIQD

Row | Compound | IC50 (SceCet1) [µM] | IC50/IC50 TbCet1, SceCet1 (SceCet1) | IC50 (TbCet1 [1]; IC50 TbCet1 by 32P assay) [µM] | IC50/IC50 TbCet1, CthTTM (CthTTM [2]) | IC50 (Lef4; [8]) [µM] | IC50/IC50 TbCet1, Lef4 (Lef4) | IC50 (TbCet1 [3]) [µM] | IC50 (MimiCE; [9]) [µM] | IC50/IC50 TbCet1, MimiCE (MimiCE) | IC50 (Lef4) [µM] | also measured
1 | O=C(/C=C/c1ccc(O)c(O)c1)O[C@@H]1C[C@](OC(=O)/C=C/c2ccc(O)c(O)c2)(C(=O)O)C[C@@H](OC(=O)/C=C/c2ccc(O)c(O)c2)[C@H]1OC(=O)/C=C/c1ccc(O)c(O)c1 [Compound 1A, 1,3,4,5-O-tetracaffeoylquinic acid] | 7.1 | 546 | 0.013 | 846 | 5.7 | 438 | 0.02 | 1.4 | 108 |  | fold lower potency against SceCet1 than against TbCet1 (SceCet1): 550 fold; fold lower potency against CthTTM than against TbCet1 (CthTTM [2]): 850 fold; IC50 (CthTTM [2]; [7]): 11 µM; fold lower potency against Lef4 than against TbCet1 (Lef4): 440 fold; fold lower potency against MimiCE than against TbCet1 (MimiCE): 110 fold; effect on cell proliferation (procyclic T. brucei): no effect
2 | O=C(/C=C/c1ccc(O)c(O)c1)O[C@@H]1CC(O)(C(=O)O)C[C@@H](OC(=O)/C=C/c2ccc(O)c(O)c2)C1O (stereo partly drawn) [Compound 1B, 3,5-O-dicaffeoylquinic acid] |  |  |  |  |  |  |  |  |  |  | activity against Trypanosoma cruzi amastigotes [4]: inactive; IC50 (TbCet1 [1]; [10]): 0.07 µM; activity against Leishmania amazonensis (Leishmania amazonensis): inactive; IC50 (TbCet1 [3]; [11]): 0.04 µM
3 | O=C(OC[C@H]1O[C@@H](OC(=O)c2cc(O)c(O)c(O)c2)[C@H](OC(=O)c2cc(O)c(O)c(O)c2)[C@@H](OC(=O)c2cc(O)c(O)c(O)c2)[C@@H]1OC(=O)c1cc(O)c(O)c(O)c1)c1cc(O)c(O)c(O)c1 [Compound 2A, pentagalloylglucose] |  |  | 0.046 |  |  |  | 0.04 |  |  | 59 | IC50 (SceCet1; read-out: IC50 SceCet1): 3.2 µM; IC50 (MimiCE): 5.1 µM
4 | O=C(CCO[C@@H]1O[C@H](CO)[C@@H](O)[C@H](O)[C@H]1O)c1ccc(O)cc1 [Compound 2B, 3-O-(4-hydroxyphenylpropanone)-1-glucopyranoside] |  | 62 |  | 44 | 150 | 227 |  |  | 182 |  | fold lower potency against SceCet1 than against TbCet1 (SceCet1): 62 fold; IC50 (SceCet1; read-out: IC50 SceCet1, 25 nM SceCet1, 30°C): 41 µM; IC50 (TbCet1 [1]; [10]): 0.66 µM; fold lower potency against CthTTM than against TbCet1 (CthTTM [2]): 44 fold; IC50 (CthTTM [2]; read-out: IC50 CthTTM, 500 nM CthTTM, 37°C): 29 µM; IC50 (TbCet1 [3]; [11]): 1.1 µM; fold lower potency against MimiCE than against TbCet1 (MimiCE): 180 fold; IC50 (MimiCE; read-out: IC50 MimiCE, 7 nM MimiCE, 37°C): 120 µM
5 | O=C(/C=C/c1ccc(O)c(O)c1)O[C@H](Cc1ccc(O)c(O)c1)C(=O)O [Compound 3A, rosmarinic acid] |  |  | 0.12 |  |  |  | 0.05 |  |  |  | 
6 | O=C(O)/C=C/c1ccc(O)c(O)c1 [Compound 3B, caffeic acid] | > 500 |  | 29 |  |  |  |  |  |  | 75 | IC50 (CthTTM [2]; [7]): 310 µM; IC50 (MimiCE): > 500 µM; activity against MimiCE (in words) (MimiCE): inactive
7 | O=C(O)C1OC(Oc2c(-c3ccc(O)c(O)c3)oc3cc(O)cc(O)c3c2=O)C(O)C(O)C1O (stereo not drawn) [Compound 4A, miquelianin] | 43 | 239 | 0.18 | 133 |  | 161 | 0.18 | 19 | 106 | 29 | IC50 (CthTTM [2]): 24 µM
8 | O=c1c(O)c(-c2cc(O)c(O)c(O)c2)oc2cc(O)cc(O)c12 [Compound 4B, myricetin] |  |  | 0.36 |  |  |  | 0.23 |  |  |  | 
9 | Oc1cc(O)c2c(c1)O[C@H](c1ccc(O)c(O)c1)[C@H](O)C2 [Compound 4C, epicatechin] | 8.7 | 35 | 0.25 | 104 |  | 136 | 0.26 | 10 | 40 | 34 | IC50 (CthTTM [2]; [7]): 26 µM
10 | O=C(CCO)c1ccc(O)cc1 [Compound 5, 3-hydroxy-1-(4-hydroxyphenyl)propan-1-one] | > 500 |  | 0.64 | 14 |  | 250 | 0.63 | 84 | 131 | 160 | activity against SceCet1 (in words) (SceCet1): no effect; IC50 (CthTTM [2]; [7]): 9.2 µM
11 | O=C(/C=C/c1ccc(O)c(O)c1)O[C@@H]1[C@H](OC(=O)/C=C/c2ccc(O)c(O)c2)C[C@]2(OC(=O)/C=C/c3ccc(O)c(O)c3)C[C@H]1OC2=O [Compound 6A, 1,4,5-tricaffeoylquinide] | 2 | 17 | 0.12 | 53 | 2.6 | 22 |  |  | 17 |  | IC50 (CthTTM [2]): 6.4 µM; IC50 (MimiCE): 2 µM
12 | O=C(C=Cc1ccccc1)OC1C=C(C(=O)O)CC(OC(=O)C=Cc2ccccc2)C1OC(=O)C=Cc1ccccc1 (stereo not drawn) [Compound 6B, 3,4,5-tricinnamoylshikimic acid] |  |  |  |  | 10 | 7 |  | 19 | 13 |  | activity against SceCet1 (in words) (SceCet1): inactive; IC50 (SceCet1; 25 nM SceCet1, 30°C, read-out: IC50 SceCet1): > 500 µM; IC50 (TbCet1 [1]; [10]): 1.5 µM; fold lower potency against CthTTM than against TbCet1 (CthTTM [5]): 100 fold; IC50 (CthTTM [5]; 500 nM CthTTM, 37°C): 150 µM; IC50/IC50 TbCet1, CthTTM (CthTTM [5]; ratio in parentheses): 100
13 | CC(=O)O[C@@]12C[C@@H](OC(=O)/C=C/c3ccc(O)c(O)c3)[C@@H](OC(=O)/C=C/c3ccc(O)c(O)c3)[C@@H](C1)OC2=O [Compound 6C, 1-acetyl,4,5-dicaffeoylquinide] | 14 | 4 | 3.6 | 13 | 21 | 6 |  |  | 4 |  | fold lowered potency against TbCet1 versus compound 6A (TbCet1 [1]; acetate for the R1 caffeic acid): 30 fold; IC50 (CthTTM [2]): 46 µM; IC50 (MimiCE): 15 µM
14 | O=P(O)(O)OP(=O)(O)OP(=O)(O)O [Tripolyphosphate] |  |  |  |  |  |  |  |  |  |  | Ki (TbCet1 [6]): 1.4 µM
15 | pentagalloylgalloylglucose [tannic acid] |  |  |  |  |  |  |  |  |  |  | IC50 (TbCet1 [3]; read-out: IC50 TbCet1, small-scale test library screens performed here and previously [37]): 0.06 µM

Source: publication PMC4791841, “Nanomolar Inhibitors of Trypanosoma brucei RNA Triphosphatase” (mBio, 2016)
